# Reference: US11505592B2, “Diagnosis and therapy of multiple sclerosis” (PRINDEX S.R.L., priority 2015, dated 2022)
# System: MO3-13 cells
# Test: Determination of reactive oxygen species (DCF fluorescence) in MO3-13 cells
# Type: cell-based, human
# Settings: 50 μM peptide 30 min
# Method: (§1) FIG. 10A: DDSK peptide reverts the effects of Ig from MS patients on ROS levels in MO3-13 cells. MO3-13 cells were grown to semi-confluence in 24 multiwell plates and incubated for 18 h in medium containing 0.2% FBS. The cells were washed twice with FBS free medium, incubated with 50 μM of DDSK for 30 min and then with 200 μg/ml of IgG from Control (IgGCtr) or MS (IgGMS) patients for 30 min. Then, the cells were incubated with 10 μM DCHF-DA for 10 min, washed three times and DCF fluorescence was measured using a plate reader fluorometer. The histograms show the mean+/−SEM values obtained in 5 different experiments from 7 control and 7 MS subjects. # p<0.05 vs IgGCtr; *p<0.05 vs IgGMS.
# as §1, with “MO3-13” for “FIG. 10A: DDSK peptide reverts the effects of Ig from MS patients on ROS levels in MO3-13 cells. MO3-13”, “Scrambled peptide (Sc)” for “DDSK”, “obtained” for “obtained in 5 different experiments”, “3” for “7”, “subjects.” for “subjects. # p<0.05 vs IgGCtr;”, “IgGCtr.” for “IgGMS.”
# ROS levels were determined using the membrane-permeant fluorogenic probe 5,6-carboxy-2′,7′-dichlorofluoresceindiacetate, DCHFDA (Molecular Probes, Leiden, the Netherlands). The assay was based on the fluorescence detection of dichlorofluorescein (DCF), formed by ROS-mediated oxidation of the non-fluorescent precursor, dichlorofluorescin.
# MO3-13 cells were grown to semi-confluence in 24 multiwell plates (45000 cell/well) and incubated for 18 h in medium containing 0.2% FBS before the experiments. […] DCF fluorescence was measured using the plate reader Fluoroskan Ascent FL fluorometer (Thermo Electron Oy, Vantaa, Finland) and data analyzed by Ascent software.
sequence,measurement,setting,value
DDSKVFKEGS,effect of peptide preincubation on ROS levels of IgG MS treated cells,then 200 μg/ml IgG MS 30 min,reverted the effect
same,effect of peptide preincubation on ROS levels of IgGCtr treated samples,then 200 μg/ml IgGCtr 30 min,did not significantly affect
